From patent US20250275993A1, “GLYCOSYLATION INHIBITORS AS THERAPEUTICS FOR STROKE” (The Regents of the University of California, priority 2022, published 2025)
“Also recorded” adds a separate entry of the source.

Tests used:
[1] = system: bovine choroidal microvascular endothelial cells (BCEC); test: BCEC proliferation assay (AlamarBlue / crystal violet); assay type: cell-based; details: for stimulation of BCEC proliferation by other hexosamines and structurally related molecules: with or without VEGF, tested alongside ManN
Method: The effect of ManN on EC proliferation was assessed.
AlamarBlue detects mitochondria activity as an indication of cell viability which correlates with cell number at certain ranges.
Proliferation assays with BCECs and BRECs were performed. Log-phase growing BCECs or BRECs (passage <10) were trypsinized, re-suspended and seeded in 96-well plates (no coating) in low-glucose DMEM supplemented with 10% bovine calf serum, 2 mM glutamine, and antibiotics (growth medium), at a density of 1200-1500 cells per well in 200 μl volume. All reagents were added at the indicated final concentrations. After 3-6 days, cells were incubated with AlamarBlue for 4 hrs. Fluorescence was measured at 530 nm excitation wavelength and 590 nm emission wavelength. The experiments were repeated at least three times. […] 20% methanol or 0.05% DMSO served as negative controls. […] Human RMVECs and human adult DMVECs were split into Gelatin-coated 96 wells (2000 cells per well) in low glucose DMEM containing 10% FBS. 1200 cells/well was set up for proliferation assay in low glucose media containing 0.5% FBS. Data was collected at day 4 or 5. HUVEC (p7-10) were grown on gelatin-coated plate until it reached 70-80% confluency.
On the day of the assay, cells were dissociated with 0.05% trypsin, which was neutralized with 0.5% FBS-containing EBM. Cells were briefly spun and then re-suspended in 0.5% FBS-media. Cells were counted and plated in 96-well, 1000 cells/well. Triplicate wells were used for each treatment. Data were collected at day 3, and then cells were fixed in 4% paraformaldehyde for 15 min before adding crystal violet. Cell-covered areas were quantified after taking pictures by Image J software.

[2] = system: Bip, CHOP, ATF-6; test: Western blot of UPR responsive proteins in BCECs; assay type: cell-based, bovine; details: for restoration of ATF-6 expression: ManN at 400 μM
[3] = system: ERK, AKT, mTOR, CREB, ACC and eNOS; test: Western blot of signal transduction pathways in BCECs; assay type: cell-based, bovine; details: 40 μM
Method: Cells were allowed to reach-80% confluency in 12-well plates. […] At various time points, plates were taken out of the incubator and kept on ice. […] Lysates were collected and mixed with 4× Bolt LDS Sample Buffer (Novex, Carlsbad, CA) in the presence of Halt protease inhibitors and phosphatase inhibitor cocktail (ThermoFisher scientific, #NP0007). […] HUVECs (passage 6-8) were plated in EBM-2 basal medium (Lonza) with 0.2% FBS. Following overnight culture, cells were serum-starved in EBM-2 medium for 4 hrs prior to treatment with 50 ng/ml of VEGF165 or vehicle controls for various lengths. Equal amounts of protein lysates were analyzed by SDS-PAGE and blotted with the indicated antibodies. Proteins were transferred using Tris-Glycine buffer with 20% Methanol (Proteonomics grade) (Apex BioResearch Products). Membranes were first incubated with 5% milk in TBST, pH 7.6 (TEKnova, Hollister, CA), followed by blotting with primary and secondary antibodies. ECL anti-rabbit IgG, horseradish peroxidase linked whole antibody from donkey or sheep anti-mouse were obtained from GE Healthcare (UK limited). SuperSignal West Dura Extended Duration substrate was from ThermoFisher Scientific. In some cases, the same PVDF membranes were stripped by 8-min incubation in the Restore Plus Western Blot Stripping Buffer (ThermoFisher Scientific) to show total specific protein expression, followed by second stripping for (3-actin expression.

[4] = system: ERK and AKT; test: Western blot of ERK and AKT activation in HUVEC and hDMVECs; assay type: cell-based, human; details: 40 μM
Method: Cells were allowed to reach-80% confluency in 12-well plates. […] At various time points, plates were taken out of the incubator and kept on ice. Cell monolayers were first washed once with ice-cold PBS before lysis with 250 μI of Pierce RIPA buffer (ThermoFisher Scientific, Rockford, IL) or use 50 mM Tris-HCl (pH 7.6), 150 mM NaCl, 10% Glycerol, 1% NP-40 containing protease/Phosphatase inhibitor cocktail (100×) (Cell signaling, #5872). Lysates were collected and mixed with 4× Bolt LDS Sample Buffer (Novex, Carlsbad, CA) in the presence of Halt protease inhibitors and phosphatase inhibitor cocktail (ThermoFisher scientific, #NP0007). The samples were subjected to SDS-PAGE (Bolt 4-12% Bis-Tris Plus, Invitrogen) using Bolt MES SDS running buffer or NuPAGE 3-8% Tris-Acetate gel using Tris-Acetate SDS running buffer (Novex). HUVECs (passage 6-8) were plated in EBM-2 basal medium (Lonza) with 0.2% FBS. Following overnight culture, cells were serum-starved in EBM-2 medium for 4 hrs prior to treatment with 50 ng/ml of VEGF165 or vehicle controls for various lengths. Equal amounts of protein lysates were analyzed by SDS-PAGE and blotted with the indicated antibodies. Proteins were transferred using Tris-Glycine buffer with 20% Methanol (Proteonomics grade) (Apex BioResearch Products). […]

[5] = system: JNK/c-jun; test: Western blot of JNK pathway activation in BCECs; assay type: cell-based, bovine; details: 40 μM; BCECs; FIG. 7E
Method: Cells were allowed to reach-80% confluency in 12-well plates. […] At various time points, plates were taken out of the incubator and kept on ice. Cell monolayers were first washed once with ice-cold PBS before lysis with 250 μI of Pierce RIPA buffer (ThermoFisher Scientific, Rockford, IL) or use 50 mM Tris-HCl (pH 7.6), 150 mM NaCl, 10% Glycerol, 1% NP-40 containing protease/Phosphatase inhibitor cocktail (100×) (Cell signaling, #5872). Lysates were collected and mixed with 4× Bolt LDS Sample Buffer (Novex, Carlsbad, CA) in the presence of Halt protease inhibitors and phosphatase inhibitor cocktail (ThermoFisher scientific, #NP0007). The samples were subjected to SDS-PAGE (Bolt 4-12% Bis-Tris Plus, Invitrogen) using Bolt MES SDS running buffer or NuPAGE 3-8% Tris-Acetate gel using Tris-Acetate SDS running buffer (Novex). HUVECs (passage 6-8) were plated in EBM-2 basal medium (Lonza) with 0.2% FBS. Following overnight culture, cells were serum-starved in EBM-2 medium for 4 hrs prior to treatment with 50 ng/ml of VEGF165 or vehicle controls for various lengths. Equal amounts of protein lysates were analyzed by SDS-PAGE and blotted with the indicated antibodies. Proteins were transferred using Tris-Glycine buffer with 20% Methanol (Proteonomics grade) (Apex BioResearch Products). Membranes were first incubated with 5% milk in TBST, pH 7.6 (TEKnova, Hollister, CA), followed by blotting with primary and secondary antibodies. ECL anti-rabbit IgG, horseradish peroxidase linked whole antibody from donkey or sheep anti-mouse were obtained from GE Healthcare (UK limited). SuperSignal West Dura Extended Duration substrate was from ThermoFisher Scientific. In some cases, the same PVDF membranes were stripped by 8-min incubation in the Restore Plus Western Blot Stripping Buffer (ThermoFisher Scientific) to show total specific protein expression, followed by second stripping for (3-actin expression.

[6] = system: BCEC confluent monolayers; test: BCEC scratch assay; assay type: cell-based, bovine; details: over 48 hours relative to control
Method: BCECs (passage 6-10) and HUVEC (passage 6-8) were used in this assay. Cells were grown until about 80% confluency in 6-well plates, washed twice with PBS and then starved in serum-free DMEM (low Glucose, Hyclone) for 5 hrs before making a “scratch” using 1 ml tip. Cell monolayers were briefly washed once with serum-free media, followed by various treatments in media containing 1% FBS. 48 hrs later, the assay was stopped by adding 2 ml 4% paraformaldehyde. 20 min later, fixed cells were stained with 1 ml Crystal Violet (Sigma). Plates were washed gently under the running tap water and air-dried before taking pictures. Images were acquired by ZEISS Discovery […] microscopy equipped with […] camera. Quantification of wound closure was done using AxioVision LE Rel.4.4 software. Six images were taken for each sample and six measurements (in pixel) were made on each image using AxioVision LE Re1.4.4 software.

[7] = system: retinal vasculature; test: Retinal neovascularization after intravitreal injection; assay type: in vivo, mouse; details: 500 ng ManN or Kif, 200 ng bFGF intravitreally; after seven days
Method: The effect of ManN and Kif on inducing retinal neovascularization was assessed. The findings in cultured eye-derived EC were extended to a suitable in vivo model system. The mouse retina has been used extensively over the past decades to study both physiological and pathological angiogenesis. To obtain a detailed description of the retinal vasculature, images from retinal flat mounts were processed for vascular area fraction (ratio of area covered by blood vessels to total retinal area). Using this model, the effects of ManN in retinal neovascularization were assessed. Kif was also tested in this model because it is a water-soluble inhibitor and its mechanism of glycosylation inhibition is well established. In addition, it shares with ManN the ability to activate ERK, AKT and stress pathways in BCEC (FIG. 7E).
Assessment of retinal angiogenesis following intravitreal administration was done. Briefly, 6-8 weeks old C57BL/6 male mice were randomly allocated to different groups and anesthetized with ketamine/Xylazine cocktail. The indicated amounts of ManN, Kif or bFGF (R&D systems, AF-233-NA) in 1 μl of PBS and PBS vehicle control were injected intravitreally with a 33-gauge Hamilton syringe. Seven days after injection, animals were euthanized. Eyes were then enucleated and fixed in 4% paraformaldehyde (PFA) for 30 mins. Retinas were separated and stained with anti-CD31 immunofluorescence (IF) to evidence the vasculature. Evaluations were performed by an investigator blinded to the treatment. For CD31 IF, rat anti-mouse antibody (BD Biosciences, CAT #550274) was diluted 1:100 and incubated overnight at 4° C. After 4-hour incubation with the Alexa Fluor-488-conjugated anti-rat antibody (Life Technologies, A11006), whole mounts were imaged via the 488 nm channel using AIR Confocal STORM super-resolution system (Nikon). Quantification of vascular density in choroids and retina was carried out by Image J. Each experiment was repeated three times with similar results, and each treatment group consists of 5 individual samples.

For `O=C(O)CCCc1ccccc1` [4-PBA, 4-phenylbutyric acid], the “reversal of ManN activity on BCEC proliferation by chaperone” value ([1]; pre-treating with 1 mM 4-PBA for 4 hours, absence or presence of VEGF) was “effectively reverse the bell-shaped activity of ManN on BCEC proliferation”, the “effect of chaperone on ManN/VEGF additivity and ManN toxicity” value ([1]; pre-treatment with 1 mM 4-PBA for 8 hours, FIG. 5D) was “abrogated additive effects of 40 μM ManN and 5 ng/ml VEGF and protected cells from toxic effect induced by 2 mM ManN” and the “prevention of CHOP induction by ManN” value ([2]; 2 mM 4-PBA or 500 µM TUDCA, ManN at 400 μM and 5 mM) was “could prevent the induction of CHOP expression”. The “restoration of ATF-6 expression” value [2] was “restore the expression of ATF-6”.
With `C[C@@H](O[C@H]1[C@H](O)[C@@H](CO)OC(O)[C@@H]1N)C(=O)O` (stereo partly shown) [muramic acid, Muramic acid] the “stimulation of BCEC proliferation by other hexosamines and structurally related molecules” value (“stimulation of BCEC proliferation” below) [1] was “None of these molecules stimulated BCEC proliferation”.
In the case of `C[C@H](CCC(=O)NCCS(=O)(=O)O)[C@H]1CC[C@H]2[C@@H]3[C@@H](O)C[C@@H]4C[C@H](O)CC[C@]4(C)[C@H]3CC[C@]12C` [TUDCA, tauroursodeoxycholic acid], the “restoration of ATF-6 expression” value [2] is reported as “much weaker”.
`CNC[C@H](O)[C@@H](O)[C@H](O)[C@H](O)CO` [meglumine, Meglumine] was tested, and the “stimulation of BCEC proliferation” value [1] was “None of these molecules stimulated BCEC proliferation”.
With `CC(=O)N[C@H]1[C@H]([C@H](O)[C@H](O)CO)OC(O)(C(=O)O)C[C@@H]1O` (stereo partly shown) [N-Acetylneuraminic acid] the “stimulation of BCEC proliferation” value [1] was “None of these molecules stimulated BCEC proliferation”.
For `Cl.NCC(=O)[C@@H](O)[C@H](O)[C@H](O)CO` [D-isoglucosamine, 1-Amino-1-deoxy-D-Fructose hydrochloride], the “stimulation of BCEC proliferation” value [1] was “None of these molecules stimulated BCEC proliferation”.
`O[C@H]1[C@H](O)[C@@H](O)CN2CC[C@H](O)[C@H]12` [Cas, Castanospermine] was tested, and the “activation of ERK and AKT in BCECs by glycosylation inhibitors” value ([3]; FIG. 7E) was “less obvious; also recorded: did not activate ERK”, the “activation of ERK and AKT in human ECs by glycosylation inhibitors” value [4] was “less obvious” and the “activation of the JNK pathway by glycosylation inhibitors” value [5] was “able to activate the JNK pathway”. For the same compound, the “gap closing in BCEC scratch assay by glycosylation inhibitors” value [6] was “significant activity”, the “BCEC proliferation by glycosylation inhibitors” value ([1]; 0.01 to 100 μM, 3 days, absence or presence of 5 ng/ml VEGF) was “stimulated in a dose-dependent fashion” and the “Bip expression by glycosylation inhibitors” value ([2]; media without growth factors for 24 hours) was “dose-dependent induction of Bip expression”.
With `N[C@H]1C(O)O[C@H](CO)[C@H](O)[C@@H]1O` (stereo partly drawn) [galactosamine, D-(+)-Galactosamine] the “stimulation of BCEC proliferation” value [1] was “none of these hexosamines had significant stimulatory effects”.
In the case of “bFGF: bFGF purchased from R&D systems, positive control”, the “increase in density of retinal vessels vs PBS group” value [7] is reported as “about 35%”.
With `N[C@H]1C(O)O[C@H](CO)[C@@H](O)[C@@H]1O` (stereo partly drawn) [glucosamine, D-(+)-Glucosamine] the “stimulation of BCEC proliferation” value [1] was “none of these hexosamines had significant stimulatory effects”.
For `CC(=O)N[C@@H]1C(O)O[C@H](CO)[C@@H](O)[C@@H]1O` (stereo partly drawn) [ManNAc, N-Acetyl-D-Mannosamine, reference compound], the “activation of ERK, AKT, mTOR, CREB, ACC and eNOS by other sugars” value ([3]; BCECs, FIG. 2C) was “induced a similar activation”.
